# In paper PMC10531168, “Development of Stable Amino-Pyrimidine–Curcumin Analogs: Synthesis, Equilibria in Solution, and Potential Anti-Proliferative Activity” (International Journal of Molecular Sciences, 2023):
# Where two headings read alike, the source gives them in different places.
# Assays:
# [1] = test system: PC3 cells; experiment: Cell viability assay (Presto Blue), 48 h; assay type: cell-based, human; settings: PC3, 48 h treatment, mean of three independent experiments, n.a. = not active at tested concentrations (≤100 µM)
# Description: (§1) To determine the anti-proliferative activity of the compounds on cancer cells, we performed dose–response treatments for 48 h on androgen-sensitive and androgen-insensitive PCa cells (LNCaP and PC3, respectively), as well as CRC cell lines (HCT116 and HT29).
# (§2) The human colon cell lines, HT29 (ATCC Cat# HTB-38) and HCT116 (ATCC Cat# CCL-247), were grown in DMEM High-Glucose Medium (Biowest, Nuaillé, France), while the human prostate cell lines, PC3 (ATCC Cat# CRL-1435) and LNCaP (ATCC Cat# CRL-1740), were grown in Ham’s F12 (Biowest, Nuaillé, France) and RPMI 1640 (Biowest, Nuaillé, France), respectively. All media were supplemented with 2 mM glutamine, 100 IU/mL penicillin, 100 μg/mL streptomycin, and 10% fetal bovine serum (FBS, Gibco, Fisher Scientific Italia, Segrate (MI), Italia)). The cells were grown at 37 °C in a humified 5% CO2 atmosphere.
# (§3) HCT116, HT29, PC3, or LNCaP cells were seeded into a 96-well plate at a density of 5000 cells/well. Cells were treated with eight different concentrations of pyrimidine derivates and curcumin for 48 h, at concentrations starting at 30 μM with 2-fold serial dilutions for curcumin and starting at 100 μM with 3-fold serial dilutions for pyrimidine derivates. Cell viability was measured using Presto Blue cell viability reagent (#A13261, Thermo Fisher Scientific, Waltham, MA, USA), according to the manufacturer’s protocol. The concentration at which cellular growth is inhibited by 50% (GI50) was determined.
# [2] = test system: LNCaP cells; experiment: Cell cycle analysis (propidium iodide cytofluorimetry); assay type: cell-based, human; settings: 48 h at GI50 dose; for % cells SubG1 (apoptotic cells): DMSO control 0.9; for % cells S: DMSO control 12.5; for % cells G2/M: DMSO control 18.4; for % cells G0/G1: DMSO control 65.1
# Description: (§4) To further investigate the effects of PY1 and PY3 on cell growth, we analyzed the cell cycle progression of LNCaP cells treated at GI50 doses for 48 h (Figure 6 and Figure S4). […] Compared to curcumin, PY1 induced a similar but enhanced effect on the cell cycle, with apoptosis and S-phase being 9.6% and 6.4%, respectively. […] This effect was similarly observed in PC3 and HCT116 cells, with G2/M cells increasing from 14.6% to 62% in PC3 and from 17% to 33% in HCT116 cells (Figure S4).
# (§5) Cells were seeded into a 24-well plate at a density of 35,000 cells/well and harvested after 48 h of treatment at GI50 concentrations. Cell cycle analysis of cells stained with propidium iodide solution (propidium iodide 25 µg/mL, Na-Citrate 3.4 mM, NaCl 9.65 mM, NP-40 0.03%) was performed using an Attune Next cytofluorimeter (Thermo Fisher Scientific, Waltham, MA, USA). DMSO was used as the control. Statistical analysis was performed with GraphPad PRISM 6 software (GraphPad Prism), using two-way ANOVA as specified in the figure legends. Graph represents means ± standard errors of the mean (SEM), n = 3. Data were considered to be statistically significant if p < 0.05 (*), p < 0.01 (**), p < 0.001(***), and p < 0.0001 (****).
# [3] = design: method as in doi:10.1016/S0020-1693(01)00687-9; settings: cited from earlier work
# [4] = test system: LNCaP cells; experiment: Cell viability assay (Presto Blue), 48 h; assay type: cell-based, human; settings: 48 h treatment, mean of three independent experiments, n.a. = not active at tested concentrations (≤100 µM)
# Description: as §1, §2, §3
# [5] = test system: HT29 cells; experiment: Cell viability assay (Presto Blue), 48 h; assay type: cell-based; settings: Homo sapiens, HT-29; HT29, 48 h treatment, mean of three independent experiments; n.a. = not active at tested concentrations (≤100 µM)
# Description: as §1, §2, §3
# [6] = test system: HCT116 cells; experiment: Cell viability assay (Presto Blue), 48 h; assay type: cell-based; settings: Homo sapiens, HCT-116; HCT116, 48 h treatment, mean of three independent experiments; n.a. = not active at tested concentrations (≤100 µM)
# Description: as §1, §2, §3
# [7] = test system: HT29 cells; design: method as in PMID 27614381; settings: read-out: GI50 (printed IG50), HT29 cell proliferation; cited from earlier work
# [8] = UV-Vis pH-metric spectrophotometric titration, protonation constants (HypSpec); assay type: physicochemical; settings: 298 K; for pKa: aqueous solution with <2% v/v methanol
# Excerpt: Pyrimidine derivatives can be considered weak bases, and the pyrimidine nitrogens are protonated in extremely acid conditions (pH < 1), while the NH2 group has a pKa around 5 depending on the electronic effects of the substituents on the aromatic rings. As a consequence, the amino-pyrimidine moiety is in the neutral form at physiological pH (7.4). Among the synthesized compounds, MPY1, MPY3, and PY1 are characterized by additional acid/base moieties, particularly a phenolic group in the meta position for MPY1 and PY1 and an additional primary aliphatic amine for MPY3. To estimate the protonation constants, UV-visible spectroscopy was preferred over potentiometry since the lower concentration range that is required allows it to work in an aqueous medium with a negligible percentage of methanol (<2% v/v). Figure 3 reports the UV-Vis pH-metric titration of MPY1 in the pH range of 2–11. In extremely acid conditions (pH 2, red spectrum), the amine group on the pyrimidine ring is fully protonated, and the molecule is positively charged (H2L^+). The maximum absorbance is observed at 400 nm, with a shoulder at 500 nm. […] Finally, in basic conditions (pH 11, blue spectrum) the phenolic group is deprotonated, and a negatively charged species is observed (L^−) with λmax at 406 nm. […] By plotting the absorbance value vs. pH at λmax, a titration curve is observed ([…]), with two equivalent points around pH = 5 and pH = 9. […] PY1 (Figure S3) is fully protonated below pH 5 (H3L+) and negatively charged in basic conditions (HL^−, L^2−). To estimate protonation constants and pKa values, spectrophotometric data were elaborated using Hypspec, and the logβ values, together with pKa, are reported in Table 1.
# To perform spectrophotometric titrations, ligands (denoted generally as L in the following) were dissolved in methanol to give a mother solution (2.50 mM) that was then diluted in water to a final volume of 25 mL in order to obtain a 25/50 μM concentration, depending on the compound, in order to have a maximum absorbance in a range of 0.4–1. The pH (initial value ~5) was varied by adding small amounts (1 μL) of concentrated NaOH/HCl (4 M) in order to investigate the spectral behavior of the 2–11 pH range. In these conditions, the volume variations were negligible. A constant ionic strength (NaNO3, 0.1 M) was maintained in all the experiments. The overall protonation constants (βqr) are defined by the following equations:qL^l− + rH^+ ⇌ [LqHr]^(r − ql)(1) (2) βqr=LqHr^r − ql/L^−l]^q · H^+]^r where L is the ligand in the completely dissociated form and H is a proton. βqr values were refined from spectrophotometric data using least-squares calculations in HypSpec. The results of least-squares calculations include the standard deviations and correlation coefficients of the refined parameters. The quantities were obtained by performing error propagation calculations from the experimental errors on the parameters. The stability constant refinement furnishes least-squares estimates of the standard deviation, σ, of the stability constant, β. The error on logβ is calculated as follows: σ(logβ) = [log(β + σ) − log(β − σ)]/2, as previously reported.
# [9] = test system: PC3 cells; experiment: Cell cycle analysis (propidium iodide cytofluorimetry); assay type: cell-based, human; settings: PC3, 48 h at GI50 dose; control 14.6%
# Description: as §4, §5
# [10] = test system: HCT116 cells; experiment: as above; assay type: cell-based, human; settings: HCT116, 48 h at GI50 dose; control 17%
# Description: as §4, §5
# [11] = aqueous solution, spectrophotometric data, HypSpec
# [12] = logβ11 (MPY1, MPY3) or logβ12 − logβ11 (PY1), read-out: pKa2
# [13] = logβ12 − logβ11 (MPY1, MPY3) or logβ13 − logβ12 (PY1), read-out: pKa1
"GI50 ([1]; Homo sapiens, PC-3, 48 h) [µM]","GI50 ([4]; Homo sapiens, 48 h) [µM]",GI50 [5] [µM],GI50 [6] [µM],"logβ11 (overall protonation constant) [8, 11]","logβ12 (overall protonation constant) [8, 11]","pKa [8, 12]","pKa [8, 13]",Compound,% cells SubG1 (apoptotic cells) [2] [%],% cells S [2] [%],% cells G2/M [2] [%],% cells G0/G1 [2] [%],also measured
–,73.9 ± 9.9,–,–,8.99 ± 0.01,13.72 ± 0.01,8.99 ± 0.01,4.73 ± 0.02,"COc1cc(/C=C/c2cc(C)nc(N)n2)ccc1O [MPY1, 4-[(E)-2-(2-amino-6-methylpyrimidin-4-yl)ethenyl]-2-methoxyphenol]",–,–,–,–,–
84.4 ± 0.1,73.1 ± 14,–,–,–,–,–,–,"COc1ccc(/C=C/c2cc(C)nc(N)n2)cc1OC [MPY2, 4-[(E)-2-(3,4-dimethoxyphenyl)ethenyl]-6-methylpyrimidin-2-amine]",–,–,–,–,–
–,68.8 ± 21.7,–,98 ± 13.6,8.62 ± 0.01,13.04 ± 0.01,8.62 ± 0.01,4.43 ± 0.02,"COc1cc(/C=C/c2cc(C)nc(N)n2)ccc1OCCCN [MPY3, 4-{(E)-2-[4-(3-aminopropoxy)-3-methoxyphenyl]ethenyl}-6-methylpyrimidin-2-amine]",–,–,–,–,–

# Second part, the compound before the results:
Compound,"GI50 ([1]; Homo sapiens, PC-3, 48 h) [µM]","GI50 ([4]; Homo sapiens, 48 h) [µM]",GI50 [5] [µM],GI50 [6] [µM],"logβ11 (overall protonation constant) [8, 11]","logβ12 (overall protonation constant) [8, 11]","pKa [8, 12]","pKa [8, 13]",% cells SubG1 (apoptotic cells) [2] [%],% cells S [2] [%],% cells G2/M [2] [%],% cells G0/G1 [2] [%],also measured
"4,6-bis[(E)-2-(3-methoxyphenyl)ethenyl]pyrimidin-2-amine [PY4]",–,–,–,–,–,–,–,–,–,–,–,–,GI50 [1]: 82.8 ± 23.4 µM
"COc1cc(/C=C/C(=O)CC(=O)/C=C/c2ccc(O)c(OC)c2)ccc1O [Curcumin, (1E,6E)-1,7-bis (4-hydroxy-3-methoxyphenyl)-1,6-heptadiene-3,5-dione]",23.9 ± 0.4,> 30,> 30,13.6 ± 2.9,–,–,–,–,7.2,9.7,22.3,58.4,pKa of keto-enol moiety [3]: 8.56
"COc1ccc(/C=C/C(=O)CC(=O)/C=C/c2ccc(OC)c(OC)c2)cc1OC [DiMC, bis-dimethoxycurcumin]",–,–,–,–,–,–,–,–,–,–,–,–,GI50 [7]: 43.4 µM
"COc1cc(/C=C/c2cc(/C=C/c3ccc(O)c(OC)c3)nc(N)n2)ccc1O [PY1, 4,4′-{(2-aminopyrimidine-4,6-diyl)di[(E)ethene-2,1-diyl]}bis(2-methoxyphenol)]",~24,~24,45.3 ± 4.1,19.9 ± 3.3,10.27 ± 0.03,19.30 ± 0.02,9.04 ± 0.05,4.86 ± 0.07,9.6,6.4,24.8,57.8,"logβ13 (overall protonation constant) [8, 11]: 24.17 ± 0.05; pKa ([8]; pKa3 = logβ11, read-out: pKa3): 10.27 ± 0.03; GI50 [1]: 23.5 ± 9.7 µM; GI50 [4]: 24.1 ± 8.5 µM"
"COc1ccc(/C=C/c2cc(/C=C/c3ccc(OC)c(OC)c3)nc(N)n2)cc1OC [PY3, 4,6-bis[(E)-2-(3,4-dimethoxyphenyl)ethenyl]pyrimidin-2-amine]",14.7 ± 0.9,12.1 ± 2,19.7 ± 1.1,37.9 ± 11.6,–,–,–,–,4.7,4.7,54.6,32.8,% cells G2/M [9]: 62%; % cells G2/M [10]: 33%
